From patent US10577618B2, “Class of glyphosate resistance genes” (Dow AgroSciences LLC, priority 2012, dated 2020)

Tests used:
T1 wheat = assay: Detailed phenotypic screen of T1 wheat events at different glyphosate dose rates (Tables 41, 42); type: in vivo, Triticum aestivum; settings: untransformed donor wheat plants
Procedure: Four replicates of 12 T1 seeds per selected event and eight replicates (12 seeds each) of the untransformed donor wheat line Bobwhite MPB26RH were sown in 85 mm pots and grown to the 2-leaf stage under well-watered conditions at 25° C. with supplementary lighting providing a 12 hour photoperiod. The pots were placed in a randomised design to allow environmental effects to be removed during data analysis. At the 2-leaf stage, plant length and number of leaves was recorded for each plant before spraying with glyphosate. The first, second, third and fourth replicate of T1 plants for each selected event and the untransformed donor wheat line were sprayed at a dose rate of 420, 840, 1680 and 3360 g ai/ha, respectively. The fifth, sixth, seventh and eighth replicate of untransformed donor wheat line (total 48 plants) were not sprayed. At 7, 14 and 21 days after spraying, the plants were scored for plant length, number of leaves and phenotypic response to glyphosate using the scoring scale in Table 37. Any morphological abnormalities were also recorded. For scoring, the scorer was “blinded” with regard to plant genotype and spray dose rate to prevent scoring bias. Plants with delayed germination and poor establishment (criteria: plant length <6 cm) at the pre-spray scoring were excluded from subsequent analyses.
This differentiation was maximal at 21 days and was observed across all glyphosate dose rates. Table 41. To assess the tolerance of the transgenic events to glyphosate at each spray dose rate, null T1 plants (i.e. plants not carrying the transgene) were excluded from subsequent analyses. T1 plants with a response score of less than three at 21 days after spraying were considered to have the null genotype. […]

T0 corn plants = assay: Post-emergence glyphosate tolerance of T0 dgt-28 corn (Table 19); type: in vivo, Zea mays
Procedure: Zea mays dgt-28 transformation events (T0) were allowed to acclimate in the greenhouse and were grown until plants had transitioned from tissue culture to greenhouse growing conditions (i.e., 2-4 new, normal looking leaves had emerged from the whorl). Plants were grown at 27° C. under 16 hour light:8 hour dark conditions in the greenhouse. The plants were then treated with commercial formulations of DURANGO DMA™ (containing the herbicide glyphosate) with the addition of 2% w/v ammonium-sulfate. Herbicide applications were made with a track sprayer at a spray volume of 187 L/ha, 50-cm spray height. T0 plants were sprayed with a range of glyphosate from 280-4480 g ae/ha glyphosate, which is capable of significant injury to untransformed corn lines. A lethal dose is defined as the rate that causes >95% injury to the B104 inbred.
T0 events of dgt-28 linked with TraP4, TraP5, TraP8 and TraP23 were generated by Agrobacterium transformation and were allowed to acclimate under controlled growth chamber conditions until 2-4 new, normal looking leaves had emerged from the whorl. Plants were assigned individual identification numbers and sampled for copy number analyses of both dgt-28 and aad-1. Based on copy number analyses, plants were selected for protein expression analyses. […]

[1] = Replicate 1, 420 g ai/ha, 10 plants at pre-spray scoring
[2] = Replicate 2, 840 g ai/ha, 10 plants at pre-spray scoring
[3] = Replicate 3, 1680 g ai/ha, 11 plants at pre-spray scoring
[4] = Replicate 4, 3360 g ai/ha, 10 plants at pre-spray scoring

For O=C(O)CNCP(=O)(O)O [glyphosate, N-(phosphonomethyl) glycine], the “No. surviving plants at 14 days after spraying” value (from here on “No. surviving plants at 14 days”) (T1 wheat; [1]) was 0, the “No. surviving plants at 21 days after spraying” value (from here on “No. surviving plants at 21 days”) (T1 wheat; [1]) was 0 and the “No. surviving plants at 14 days” value (T1 wheat; [2]) was 3. The “No. surviving plants at 21 days” value (T1 wheat; [2]) was 0, the “No. surviving plants at 14 days” value (T1 wheat; [3]) was 0 and the “No. surviving plants at 21 days” value (T1 wheat; [3]) was 0. The “No. surviving plants at 14 days” value (T1 wheat; [4]) was 1, the “No. surviving plants at 21 days” value (T1 wheat; [4]) was 0 and the “non-transformed plants controlled with glyphosate at concentrations as low as” value (T0 corn plants) was no less than 280 g ae/ha.
